Measured values taken from patent US6524863B1, “High throughput HPLC method for determining Log P values” (Scynexis Chemistry & Automation, Inc., priority 1999, dated 2003).
Read-outs that look alike come from different tables or passages of the source.

Key:
[1] = Isocratic HPLC Log P; details: for Isocratic Log P: isocratic method, no details given
Source text: (§1) Isocratic data, measured at certain eluent compositions (typically as log k′x, for a given eluent composition X), can be used to calculate Log P data.

[2] = Gradient HPLC Log P determination from retention time (new method)
Procedure: (§2) An evaporated light scattering detector (Richard Scientific) and a platform LC mass spectrometer (Micromass) were used as detectors.
(§3) The mobile phase was a binary gradient of methanol/water. The stationary phase was a 4.6×50 mm column packed with 5 micron ODS-AQ. The injection size was 5 μL. The mobile phase gradient was adjusted to obtain a Log P nearly equal to the retention time on the HPLC column.
(§4) After 6.1 minutes, the column was set to re-equilibrate.
(§5) Retention times (X), shake flask log P (Y), slope and intercept from the above plot were used to calculate log P for these standards.
(§6) When log P was plotted versus the log of the capacity factor K for these standards, an following exponential curve was obtained, as shown in FIG. 3.
(§7) Using this exponential equation and HPLC retention times of these standards, Log P and Log K were calculated and compared with the retention times and literature Log P values.

[3] = physchem
Procedure: as §2, §3, §4, §5, §6, §7

[4] = physchem; remark: listed apart in the source
Source text: as §1

[5] = cited from earlier work
[6] = New Method Calc. Log P Y = 1.009X + 0.029, calculated from average gradient HPLC retention time X (ODS-AQ 4.6×50 mm, methanol/water), linear fit
[7] = New Method Calc. Log P Y = 1.009X + 0.029
[8] = Log P calc. by slope, calculated from Log K (capacity factor) with exponential equation Y=0.6972e^1.5966X
[9] = shake flask Log P values (lit.), Table 2
[10] = shake flask, literature, Table 3
[11] = shake flask, literature, Table 4

With ClC(Cl)=C(c1ccc(Cl)cc1)c1ccc(Cl)cc1 [standard 16, DDE] the “Isocratic Log P” value [1] was 6.28.
O=c1cc[nH]c(=O)[nH]1 [standard 1, uracil] gave a chromatographic logP [1] of -1.05 and a chromatographic logP [2, 6] of 0.32.
Compound Cc1ccc(Cl)cc1 [standard 8, p-chloro toluene] has a chromatographic logP ([3]; Log P calc. by slope) of 3.74, a chromatographic logP [3, 7] of 3.74 and a chromatographic logP [4] of 3.57.
For CCOP(=S)(OCC)Oc1ccc([N+](=O)[O-])cc1 [standard 9, diethyl parathion], the “Isocratic Log P” value [1] was 3.39.
NC(=O)c1ccccc1 [standard 2, benzamide] showed a chromatographic logP [1] of 0.41, a chromatographic logP [2, 8] of 0.58 and a chromatographic logP [2, 6] of 0.56.
Work on c1ccc2cc3ccccc3cc2c1 [standard 12, anthracene] yielded a chromatographic logP ([3]; Log P calc. by slope) of 4.27 and a chromatographic logP [4] of 4.46.
With Cc1ccc2cc(C)ccc2c1 [standard 11, 2,6-dimethyl napthalene] the “Isocratic Log P” value [1] was 4.49.
In the case of CC(=O)c1ccccc1 [standard 6, acetophenone], the “Lit. Log P” value [5, 9] is listed as 2.13, the “Lit. Log P” value [5, 10] is listed as 2.13 and the “Lit. Log P” value [5, 11] is listed as 2.13. For the same compound, the chromatographic logP [1] was 2.54, the chromatographic logP [2, 8] was 2.22 and the chromatographic logP [2, 6] was 1.94.
COc1ccc(C(c2ccc(OC)cc2)C(Cl)(Cl)Cl)cc1 [standard 15, methoxychlor] gave a chromatographic logP ([3]; Log P calc. by slope) of 4.37, a chromatographic logP [3, 7] of 4.61 and a chromatographic logP [4] of 4.26.
For c1ccc(Sc2ccccc2)cc1 [standard 13, phenyl sulfide], the “Lit. Log P” value [5, 9] is listed as 4.45, the “Lit. Log P” value [5, 10] is listed as 4.45 and the “Lit. Log P” value [5, 11] is listed as 4.45. The chromatographic logP [1] was 4.31, the chromatographic logP [2, 8] was 4.17 and the chromatographic logP [2, 6] was 4.33.
In the case of OCc1ccccc1 [standard 4, benzyl alcohol], the chromatographic logP [1] was 0.96 and the chromatographic logP [2, 6] was 0.98.
For CNC(=O)c1ccccc1 [standard 3, N-methyl benzamide], the “Lit. Log P” value [5, 9] is given as 0.86, the “Lit. Log P” value [5, 10] is given as 0.86 and the “Lit. Log P” value [5, 11] is given as 0.86. The chromatographic logP [1] was 0.96, the chromatographic logP [2, 8] was 0.75 and the chromatographic logP [2, 6] was 0.68.
Compound CCCN(CCC)c1c([N+](=O)[O-])cc(C(F)(F)F)cc1[N+](=O)[O-] [standard 14, trifluralin] has a chromatographic logP ([3]; Log P calc. by slope) of 4.57, a chromatographic logP [3, 7] of 4.88 and a chromatographic logP [4] of 5.
Compound Brc1ccccc1 [standard 7, bromobenzene] has a chromatographic logP ([3]; Log P calc. by slope) of 3.5, a chromatographic logP [3, 7] of 3.44 and a chromatographic logP [4] of 3.23.
In the case of c1ccc(-c2ccccc2)cc1 [standard 10, biphenyl], the chromatographic logP [3, 7] was 4.07, the chromatographic logP [4] was 3.8 and the “Log P calc. by slope” value ([2]; calculated from Log K (capacity factor) with exponential equation Y=0.6972e^1.5966X) was 3.98.
